Patent US20250152599A1 (priority 2020, published 2025)
Read-outs that look alike come from different tables or passages of the source.

Assays:
Vero cells = conditions: for CC10: African green monkey
[1] = test system: novel coronavirus (SARS-CoV-2); assay: microbe, parasite or virus in culture; type: cell-based; conditions: for EC50: Severe acute respiratory syndrome coronavirus 2, Vero, read-out: EC50 for inhibiting the novel coronavirus
novel coronavirus = assay: Inhibitory effect of PI0101 on the novel coronavirus, 96-well plate, 76 hours; type: cell-based, SARS-CoV-2; conditions: Severe acute respiratory syndrome coronavirus 2, novel coronavirus 100 TCID50/well
HCoV 229E [2] = assay: microbe, parasite or virus in culture; conditions: unidentified human coronavirus
in vitro [3] = conditions: human
HCoV 229E [4] = test system: HCoV 229E
PI4KIIIα = PI4KIIIα (Homo sapiens, UniProt P42356); conditions: read-out: IC50 of inhibitory effect on PI4KIIIα; cited from earlier work
in vitro [5] = assay: in vitro
in vitro [6] = conditions: African green monkey
MRC5 cells = conditions: human

PI4KIIIα, sequence (P42356 whole entry): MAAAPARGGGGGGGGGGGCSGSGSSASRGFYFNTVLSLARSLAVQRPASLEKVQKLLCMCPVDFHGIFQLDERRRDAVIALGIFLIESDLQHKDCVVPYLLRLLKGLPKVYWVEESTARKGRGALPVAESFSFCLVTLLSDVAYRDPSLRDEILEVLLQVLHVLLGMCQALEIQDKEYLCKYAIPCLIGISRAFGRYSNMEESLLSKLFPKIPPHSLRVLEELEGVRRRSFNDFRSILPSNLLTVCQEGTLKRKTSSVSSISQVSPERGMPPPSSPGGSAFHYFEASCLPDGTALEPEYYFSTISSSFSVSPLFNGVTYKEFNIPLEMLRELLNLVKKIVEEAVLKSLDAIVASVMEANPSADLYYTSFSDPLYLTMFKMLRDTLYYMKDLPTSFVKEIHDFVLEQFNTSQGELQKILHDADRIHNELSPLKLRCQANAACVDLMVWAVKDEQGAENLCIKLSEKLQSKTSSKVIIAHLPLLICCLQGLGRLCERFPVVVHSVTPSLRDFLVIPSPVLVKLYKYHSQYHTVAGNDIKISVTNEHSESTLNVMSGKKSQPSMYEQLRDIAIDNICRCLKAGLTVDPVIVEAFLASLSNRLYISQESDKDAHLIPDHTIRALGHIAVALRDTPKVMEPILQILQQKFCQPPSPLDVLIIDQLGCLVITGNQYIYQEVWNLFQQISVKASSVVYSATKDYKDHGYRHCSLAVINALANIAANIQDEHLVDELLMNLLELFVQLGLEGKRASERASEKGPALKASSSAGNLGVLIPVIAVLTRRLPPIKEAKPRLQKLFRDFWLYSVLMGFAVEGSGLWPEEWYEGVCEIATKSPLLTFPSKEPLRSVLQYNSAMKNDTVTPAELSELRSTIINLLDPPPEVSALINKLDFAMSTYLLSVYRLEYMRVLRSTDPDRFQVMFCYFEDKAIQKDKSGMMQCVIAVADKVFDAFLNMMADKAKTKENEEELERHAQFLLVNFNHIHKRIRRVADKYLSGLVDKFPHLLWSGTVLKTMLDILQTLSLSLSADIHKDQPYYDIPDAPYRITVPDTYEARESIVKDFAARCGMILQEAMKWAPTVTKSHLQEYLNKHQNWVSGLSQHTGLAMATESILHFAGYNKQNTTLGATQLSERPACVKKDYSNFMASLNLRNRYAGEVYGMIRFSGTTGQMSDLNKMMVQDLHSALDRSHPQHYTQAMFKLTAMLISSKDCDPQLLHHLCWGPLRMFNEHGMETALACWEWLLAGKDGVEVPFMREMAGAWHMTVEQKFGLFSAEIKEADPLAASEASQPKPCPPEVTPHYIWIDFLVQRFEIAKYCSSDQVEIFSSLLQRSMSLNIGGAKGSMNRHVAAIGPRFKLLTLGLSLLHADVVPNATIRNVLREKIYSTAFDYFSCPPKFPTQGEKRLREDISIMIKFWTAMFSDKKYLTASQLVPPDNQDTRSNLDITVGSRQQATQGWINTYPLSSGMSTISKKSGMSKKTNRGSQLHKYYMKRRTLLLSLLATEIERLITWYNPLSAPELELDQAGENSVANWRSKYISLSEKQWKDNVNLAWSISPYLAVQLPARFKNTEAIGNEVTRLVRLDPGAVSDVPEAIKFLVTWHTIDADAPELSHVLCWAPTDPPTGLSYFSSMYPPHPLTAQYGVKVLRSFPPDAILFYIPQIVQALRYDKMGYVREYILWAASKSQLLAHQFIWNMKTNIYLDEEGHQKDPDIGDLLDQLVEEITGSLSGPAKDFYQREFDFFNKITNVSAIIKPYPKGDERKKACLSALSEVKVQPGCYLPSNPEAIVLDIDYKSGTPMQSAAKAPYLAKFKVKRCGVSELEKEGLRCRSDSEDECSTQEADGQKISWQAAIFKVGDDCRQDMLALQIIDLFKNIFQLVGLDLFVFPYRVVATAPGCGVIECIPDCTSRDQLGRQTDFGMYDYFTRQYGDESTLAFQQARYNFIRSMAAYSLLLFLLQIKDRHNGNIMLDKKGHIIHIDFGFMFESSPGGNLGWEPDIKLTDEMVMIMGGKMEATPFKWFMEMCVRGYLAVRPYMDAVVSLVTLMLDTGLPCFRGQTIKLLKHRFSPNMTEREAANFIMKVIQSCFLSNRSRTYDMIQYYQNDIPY

Q: Which CC10 (Vero cells) does the source give for `CCN(CC)CCCC(C)Nc1ccnc2cc(Cl)ccc12` (stereo not drawn) [Chloroquine phosphate] here?
A: 120 µM

Q: And the EC50 [1]?
A: 50 µM

Q: Which results are given for `COc1ccc2c(O[C@@H]3C[C@H]4C(=O)N[C@]5(C(=O)NS(=O)(=O)C6CC6)C[C@H]5/C=C\CCCCN(C)C(=O)[C@@H]4C3)cc(-c3nc(C(C)C)cs3)nc2c1C` [PI0101, Simeprevir]?
A: EC50 (novel coronavirus): 3.85 µM; EC50 (HCoV 229E [2]; MRC5, 72 h): 3.41 µM; CC50 (in vitro [3]): 8.46 µM; SI (CC50/EC50) (HCoV 229E [4]; the second test): 2.48; IC50 (PI4KIIIα): 0.2 µM; CC50 (in vitro [5]): > 10 µM

Q: With `CC(=O)Nc1nc(C)c(-c2ccc(Cl)c(S(=O)(=O)NCCO)c2)s1` [PIK-93] as the compound, how does the “toxic effect on Vero cells” value (Vero cells) read?
A: no significant toxic effect

Q: And the “inhibitory effect on the novel coronavirus” value [1]?
A: no significant inhibitory effect

Q: What does the source list for `CCC(CC)COC(=O)[C@H](C)N[P@](=O)(OC[C@H]1O[C@@](C#N)(c2ccc3c(N)ncnn23)[C@H](O)[C@@H]1O)Oc1ccccc1` [Remdesivir]?
A: CC10 (Vero cells): 55 µM; EC50 [1]: 0.52 µM; EC50 (HCoV 229E [2]; MRC5): 0.0264 µM; SI (CC50/EC50) (HCoV 229E [4]; the first test): >3785.01; SI (CC50/EC50) (HCoV 229E [4]; the second test): 2338.60; CC50 (in vitro [6]): 208 µM; viability (in vitro [6]): > 90%; CC50 (MRC5 cells): 30.7 µM

Q: For `O=[As]c1ccc(NC(=O)CCc2ccccc2)cc1` (stereo not drawn) [YL-05], which EC50 (HCoV 229E [2]; MRC5, 72 h) is on record?
A: > 0.2 µM

Q: What about the CC50 (in vitro [3]) of the same compound?
A: > 0.8 µM

Q: Which CC50 (MRC5 cells) does the source give for `O=[As]c1ccc(NS(=O)(=O)c2ccc(F)cc2)cc1` (stereo not drawn) [YL-09] here?
A: 13.9 µM

Q: Which EC50 (HCoV 229E [4]) does the source give for `COc1ccc(S(=O)(=O)Nc2ccc([As]=O)cc2)cc1` (stereo not drawn) [YL-10] here?
A: 3.95 µM

Q: What about the “SI (CC50/EC50)” value (HCoV 229E [4]) of the same compound?
A: 3.55

Q: What about the CC50 (MRC5 cells) of the same compound?
A: 14 µM

Q: For `O=[As]c1ccc(NS(=O)(=O)c2ccc(C(F)(F)F)cc2)cc1` (stereo not drawn) [YL-11], which EC50 (HCoV 229E [4]) is on record?
A: 2.1 µM

Q: And the “SI (CC50/EC50)” value (HCoV 229E [4])?
A: 3.03

Q: What about the CC50 (MRC5 cells) of the same compound?
A: 6.37 µM
